Laboratory results reported in a compilation of properties of binary mixtures (doi:10.1016/j.jct.2019.105906).

Assay: xn = mol fraction of the nth substance listed
Details: 100 kPa

CCOC(C)=O + CCCC[n+]1ccn(C)c1.F[P-](F)(F)(F)(F)F
x2 = 0
Details	speed of sound [m/s]
303.15 K	1120.8
308.15 K	1098.7
313.15 K	1076.4
318.15 K	1054.1
323.15 K	1032

CCCC[n+]1ccn(C)c1.F[P-](F)(F)(F)(F)F + CCOC(C)=O
speed of sound [m/s]
Details	x1 = 0.1012	x1 = 0.1992	x1 = 0.312	x1 = 0.3985	x1 = 0.5056	x1 = 0.5996	x1 = 0.7054	x1 = 0.7963	x1 = 0.9185	x1 = 1
298.15 K	1182.1	1223.3	1269.2	1302	1337.9	–	1391.7	1410.1	1430.5	1443.8
303.15 K	1161.8	1205	1252.8	–	–	–	1378.8	1397.4	–	1431.7
308.15 K	1141.8	1186.7	–	–	–	1339.5	1366	–	1405.6	1419.8
313.15 K	1121.4	–	1220.1	1256	1297.5	1325.9	1353.2	1371.9	–	–
318.15 K	1101.1	–	1203.7	1240.6	–	1312.6	1340.4	–	–	–
323.15 K	1081	1132.1	1187.3	1225.2	–	1299.1	1327.5	1346.6	1368.4	1385.6
